Assay [1] relates to human neuroblastoma cell line overexpressing full-length human Tau carrying the P301L mutation. The assay can be described thus: Reduction of intracellular Tau aggregation (AlphaLISA). In kind it is cell-based. The following applies: compound at 5 μM, 24 h; aggregated Tau normalized to total Tau, relative to DMSO-treated cells. Here is the method: A human neuroblastoma cell line overexpressing the full-length form of human Tau carrying the P301 L mutation was cultured in complete medium [DMEM-F12 4.5 g/L Glutamax (Invitrogen), 15% FBS (Biochrom), 1% Peni/Strep (Invitrogen) supplemented with 2.5 μg/ml of G418 (Sigma-Aldrich) selection antibiotic]. The day before the experiment 5×10^5 cells/well were plated in a 6 well plate in 3 mL of complete medium. The next day, cells were incubated with DMSO or a compound of the present invention at 5 μM for additional 24 h at 37° C. […]
Phosphorylated, aggregated, and total Tau were quantified by AlphaLisa using the following antibody pairs: • HT7-Acceptor beads+biotin (BT)-Tau13-Donor beads: Total Tau • HT7-Acceptor beads+biotin (BT)-HT7-Donor beads: Aggregated human Tau […]
After incubation of this mixture at room temperature for 1 h, 25 μL of Streptavidin Donor beads (Perkin Elmer) at 25 μg/mL were added in the dark. Plates were analyzed after 30 min incubation using the EnSpire Alpha instrument and EnSpire Workstation version 3.00. Data for aggregated Tau were normalized to total Tau and then expressed as percentage of the DMSO-treated cells.
A general note: Bead proximity is the source of the signal in Alpha formats.

Assay [2] has as its target T1, Tau K18 fragment aggregates (amino acids 244 to 372 of human Tau441) (Homo sapiens, UniProt P10636).
T1 construct: encompassing amino acids 244 to 372 of the longest isoform (2N4R) of human Tau441; host or cells: bacteria
The assay is described as follows: Tau K18 disaggregation assay by ThT. In kind it is biochemical. The conditions noted are these: 2 μM K18 aggregates, compounds 160 to 0.04 μM, 30 min RT, ThT fluorescence. The method, then: Compounds were dissolved in anhydrous dimethyl sulfoxide (DMSO, Sigma-Aldrich) to reach a concentration of 10 mM. K18 aggregates and serial dilutions of compounds were mixed together in PBS (volume 50 μL) to a final concentration of 2 μM of K18 aggregates and from 160 to 0.04 μM of compounds. The mixture was incubated for 30 minutes at room temperature (RT), then 40 μL of this mixture were transferred into a black 384-well plate assay (Perkin-Elmer) and mixed with 10 μL of 100 μM ThT in 250 mM glycine (both from Sigma-Aldrich) in PBS. Fluorescence (relative fluorescence units; RFU) was measured in monoplicate or duplicate on a Tecan reader (excitation: 440 nm; emission: 485 nm). Percentage of K18 disaggregation was then calculated and half maximal effective concentration (EC50) was determined using GraphPad Prism version 5 (GraphPad Software) assuming a one-binding site fitting model.

SMILES strings stand for the structures. pEC50: −log10 of the molar value.

One may read the pEC50 as the EC50 on a negative log10 scale, so that one unit is a factor of ten. Low values mean a large EC50, high ones a small EC50.

T1 sequence (P10636 561-689): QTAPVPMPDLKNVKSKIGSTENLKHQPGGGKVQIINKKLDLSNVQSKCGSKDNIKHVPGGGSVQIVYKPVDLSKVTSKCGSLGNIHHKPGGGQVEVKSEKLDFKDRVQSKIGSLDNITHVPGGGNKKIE

Regarding `c1ccc2c3c([nH]c2c1)CN(c1ccc(N2CCOCC2)nc1)CC3` [Example 44], in assay [1], the “% Reduction of intracellular Tau aggregation” value is reported as “+++ (+++ % >50)”.

The molecule `Fc1ccc2[nH]c3c(c2c1)CC1CCC3N1c1ccc(N2CCOCC2)cn1` (centres unmarked) [Example 47] had a pEC50 in assay [2] of 4.60 to 5.00.

For the origin of these results see patent US20230255976A1, “Novel Compounds for the Treatment, Alleviation or Prevention of Disorders Associated with Tau Aggregates” (AC Immune SA, priority 2018, published 2023).
